# Experimental data: publication PMC9090415, “Discovery of small molecule inhibitors of Plasmodium falciparum apicoplast DNA polymerase” (Journal of Enzyme Inhibition and Medicinal Chemistry, 2022)
# Molecular target: P. falciparum apicoplast DNA polymerase (Pf-apPOL) (Plasmodium falciparum, UniProt Q8ILY1)
# Assay: Fluorescence-based high-throughput DNA polymerase assay (molecular beacon), primary screen and dose-response;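 as to % inhibition ApPOL 90': test concentration in µM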;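 as to % inhibition apPOL 180': test concentration in µM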
# Type: biochemical
# Settings: for DNA Pol: 90 min, 10 µM
# Procedure, shortened: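 Single-point screening used 10 µM compound with 20 nM polymerase, 20 nM hairpin substrate and 6 µM dNTPs for 90 min at 25 °C. Confirmatory titrations (2.5–80 µM) followed fluorescence at three times, and IC50 was derived from a fit including a cooperativity term n.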
# [1] = primary screen value of the 186 hits, unit not given
# Sequence of P. falciparum apicoplast DNA polymerase (Pf-apPOL) (Q8ILY1 entry or part of it): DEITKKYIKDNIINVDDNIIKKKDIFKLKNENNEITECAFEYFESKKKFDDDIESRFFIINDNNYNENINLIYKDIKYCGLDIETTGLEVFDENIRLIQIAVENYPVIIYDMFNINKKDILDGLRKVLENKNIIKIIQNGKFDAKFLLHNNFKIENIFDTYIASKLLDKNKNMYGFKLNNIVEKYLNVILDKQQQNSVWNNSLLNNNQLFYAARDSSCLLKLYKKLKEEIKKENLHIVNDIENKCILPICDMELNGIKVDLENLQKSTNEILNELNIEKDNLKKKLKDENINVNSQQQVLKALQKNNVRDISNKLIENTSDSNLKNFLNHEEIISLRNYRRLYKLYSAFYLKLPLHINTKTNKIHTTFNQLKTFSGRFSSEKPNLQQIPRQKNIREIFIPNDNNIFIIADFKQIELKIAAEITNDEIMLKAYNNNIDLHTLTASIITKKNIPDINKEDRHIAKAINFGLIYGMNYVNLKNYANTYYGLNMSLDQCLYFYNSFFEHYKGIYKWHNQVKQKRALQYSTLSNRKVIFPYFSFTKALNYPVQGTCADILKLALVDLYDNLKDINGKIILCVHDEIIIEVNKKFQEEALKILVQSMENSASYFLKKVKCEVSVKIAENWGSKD
structure (smiles),measurement,setting,value
O=C1NCCCn2cc(S(=O)(=O)Nc3ccccc3)cc21 [KU0214835],% inhibition Apo pol 10',"DRC-1, concentration 2.5",3.062%
same,% inhibition Apo pol 10',"DRC-1, concentration 5",6.352%
same,% inhibition Apo pol 10',"DRC-1, concentration 10",23.7327%
same,% inhibition Apo pol 10',"DRC-1, concentration 20",40.9778%
same,% inhibition Apo pol 10',"DRC-1, concentration 40",76.8886%
same,% inhibition Apo pol 10',"DRC-1, concentration 80",90.7287%
same,% inhibition Apol 90',"DRC-1, concentration 2.5",-1.959%
same,% inhibition Apol 90',"DRC-1, concentration 5",-0.5686%
same,% inhibition Apol 90',"DRC-1, concentration 10",11.8703%
same,% inhibition Apol 90',"DRC-1, concentration 20",23.2222%
same,% inhibition Apol 90',"DRC-1, concentration 40",60.7318%
same,% inhibition Apol 90',"DRC-1, concentration 80",88.5247%
same,% inhibition apPOL 180',"DRC-1, concentration 2.5",-6.967%
same,% inhibition apPOL 180',"DRC-1, concentration 5",-5.597%
same,% inhibition apPOL 180',"DRC-1, concentration 10",2.257%
same,% inhibition apPOL 180',"DRC-1, concentration 20",8.277%
same,% inhibition apPOL 180',"DRC-1, concentration 40",41.6614%
same,% inhibition apPOL 180',"DRC-1, concentration 80",83.4683%
same,% inhibition Apo pol 5',"DRC-2, concentration 2.5",5.45%
same,% inhibition Apo pol 5',"DRC-2, concentration 5",8%
same,% inhibition Apo pol 5',"DRC-2, concentration 10",25%
same,% inhibition Apo pol 5',"DRC-2, concentration 20",44%
same,% inhibition Apo pol 5',"DRC-2, concentration 40",53%
same,% inhibition Apo pol 5',"DRC-2, concentration 80",50%
same,% inhibition Apol 40',"DRC-2, concentration 2.5",7%
same,% inhibition Apol 40',"DRC-2, concentration 5",8%
same,% inhibition Apol 40',"DRC-2, concentration 10",24%
same,% inhibition Apol 40',"DRC-2, concentration 20",48%
same,% inhibition Apol 40',"DRC-2, concentration 40",66%
same,% inhibition Apol 40',"DRC-2, concentration 80",70%
same,% inhibition ApPOL 90',"DRC-2, concentration 2.5",5.66%
same,% inhibition ApPOL 90',"DRC-2, concentration 5",7%
same,% inhibition ApPOL 90',"DRC-2, concentration 10",21%
same,% inhibition ApPOL 90',"DRC-2, concentration 20",44%
same,% inhibition ApPOL 90',"DRC-2, concentration 40",66%
same,% inhibition ApPOL 90',"DRC-2, concentration 80",74%
same,% inhibition apPOL 180',"DRC-2, concentration 2.5",2%
same,% inhibition apPOL 180',"DRC-2, concentration 5",3.52%
same,% inhibition apPOL 180',"DRC-2, concentration 10",14%
same,% inhibition apPOL 180',"DRC-2, concentration 20",31%
same,% inhibition apPOL 180',"DRC-2, concentration 40",59%
same,% inhibition apPOL 180',"DRC-2, concentration 80",76%
same,% inhibition Apol 40',"conc. 2.5, DRC-2",7%
same,% inhibition Apo pol 5',"conc. 5, DRC-2",8%
same,% inhibition Apol 40',"conc. 5, DRC-2",8%
same,% inhibition ApPOL 90',"conc. 5, DRC-2",7%
same,% inhibition Apo pol 5',"conc. 20, DRC-2",44%
same,% inhibition ApPOL 90',"conc. 20, DRC-2",44%
same,% inhibition Apol 40',"conc. 40, DRC-2",66%
same,% inhibition ApPOL 90',"conc. 40, DRC-2",66%
same,DNA Pol,primary screen value by plate and well,21
same,DNA Pol,[1],21
"CCCCOC(=O)CCCCCN1C(=O)C(=Cc2ccc(OC)cc2)SC1=S [Molecule 75, CCCCOC(=O)CCCCCN1C(=S)SC(=Cc2ccc(cc2)OC)C1=O]",% inhibition Apo pol 10',"DRC-1, concentration 2.5",-1.1804%
same,% inhibition Apo pol 10',"DRC-1, concentration 5",1.705%
same,% inhibition Apo pol 10',"DRC-1, concentration 10",11.988%
same,% inhibition Apo pol 10',"DRC-1, concentration 20",12.7699%
same,% inhibition Apo pol 10',"DRC-1, concentration 40",17.437%
same,% inhibition Apo pol 10',"DRC-1, concentration 80",85.0535%
same,% inhibition Apol 90',"DRC-1, concentration 2.5",3.6918%
same,% inhibition Apol 90',"DRC-1, concentration 5",7.9015%
same,% inhibition Apol 90',"DRC-1, concentration 10",19.2889%
same,% inhibition Apol 90',"DRC-1, concentration 20",19.2951%
same,% inhibition Apol 90',"DRC-1, concentration 40",23.7139%
same,% inhibition Apol 90',"DRC-1, concentration 80",84.541%
same,% inhibition apPOL 180',"DRC-1, concentration 2.5",6.465%
same,% inhibition apPOL 180',"DRC-1, concentration 5",11.5498%
same,% inhibition apPOL 180',"DRC-1, concentration 10",23.7615%
same,% inhibition apPOL 180',"DRC-1, concentration 20",23.8231%
same,% inhibition apPOL 180',"DRC-1, concentration 40",28.3946%
same,% inhibition apPOL 180',"DRC-1, concentration 80",81.7032%
same,% inhibition Apo pol 5',"DRC-2, concentration 2.5",-2%
same,% inhibition Apo pol 5',"DRC-2, concentration 5",3%
same,% inhibition Apo pol 5',"DRC-2, concentration 10",20%
same,% inhibition Apo pol 5',"DRC-2, concentration 20",30%
same,% inhibition Apo pol 5',"DRC-2, concentration 40",45%
same,% inhibition Apo pol 5',"DRC-2, concentration 80",46%
same,% inhibition Apol 40',"DRC-2, concentration 2.5",-0.735%
same,% inhibition Apol 40',"DRC-2, concentration 5",5%
same,% inhibition Apol 40',"DRC-2, concentration 10",24%
same,% inhibition Apol 40',"DRC-2, concentration 20",42%
same,% inhibition Apol 40',"DRC-2, concentration 40",66%
same,% inhibition Apol 40',"DRC-2, concentration 80",69%
same,% inhibition ApPOL 90',"DRC-2, concentration 2.5",-1%
same,% inhibition ApPOL 90',"DRC-2, concentration 5",6.48%
same,% inhibition ApPOL 90',"DRC-2, concentration 10",25%
same,% inhibition ApPOL 90',"DRC-2, concentration 20",43%
same,% inhibition ApPOL 90',"DRC-2, concentration 40",71%
same,% inhibition ApPOL 90',"DRC-2, concentration 80",74%
same,% inhibition apPOL 180',"DRC-2, concentration 2.5",-5%
same,% inhibition apPOL 180',"DRC-2, concentration 5",0.541%
same,% inhibition apPOL 180',"DRC-2, concentration 10",18%
same,% inhibition apPOL 180',"DRC-2, concentration 20",40%
same,% inhibition apPOL 180',"DRC-2, concentration 40",76%
same,% inhibition apPOL 180',"DRC-2, concentration 80",79%
same,DNA Pol,[1],27
same,DNA Pol,"primary screen value, head ""DNA Pol"", unit not given",27
